# Entries after “also recorded” stand apart in the source; their conditions may differ. Like-named read-outs stand apart in the source and are kept apart here.
# Assays:
# [1] = system: various groups of microorganisms; assay: Antimicrobial activity (MIC), all microorganisms tested; format: cell-based; conditions: for MIC: 24 h, read-out: MICs against the various groups of microorganisms tested
# Procedure: (§1) The antimicrobial activity of the compounds according to the present invention were compared with the results obtained for squalamine as reported in Proc. Nat. Acad. Sci. USA 90:1354 (1993), supra, the disclosure of which is incorporated in toto herein. The data reported in the following table is the minimum inhibitory concentration (MIC) required for complete inhibition of microbial growth. The MIC was determined utilizing known micro-broth dilution methods in which inocula of 10^6 /ml of the test organism were incubated in 0.5× trypticase soy broth at 35° C. for 24 hours. MIC's were also tested under various pH conditions, with calcium chloride or magnesium chloride, or with immobilized horse serum.
# (§2) The numbers in parentheses contained in the table correspond to accession numbers with the American Type Culture Collection (reference strains were either obtained from the American Type Culture Collection or from the Microbiology Laboratory at Memorial Sloan-Kettering Cancer Center; Bacterial strains were maintained on Columbia 5% sheep blood agar plates, and fungi were maintained on Sabouraud Dextrose agar plates).
# [2] = Hemolytic activity, minimal hemolytic concentration (MHC); format: cell-based, sheep; conditions: for MCC at 24 h: sheep, red blood cells;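 on MCC: MCC here is the minimal hemolytic concentration (MHC)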
# Procedure: Hemolytic activity of the squalamine mimics according to the present invention were also studied by incubating sheep red blood cells for 24 hours at 37° C. in saline (final concentration of 0.5%) with or without respective concentrations of the squalamine mimics. The minimal hemolytic concentration (MHC) was determined as the lowest concentration of a mimic that raised visible hemolysis.
# A. fumigatus (H1120) = assay: MIC, micro-broth dilution; format: cell-based; conditions: Aspergillus fumigatus, 35° C., 24 hours, read-out: ANTIMICROBIAL ACTIVITY (MIC)
# Procedure: as §1, §2
# S. pneumoniae (6305) = assay: MIC, micro-broth dilution; format: cell-based; conditions: Streptococcus pneumoniae, 35° C., 24 hours, read-out: ANTIMICROBIAL ACTIVITY (MIC)
# Procedure: as §1, §2
# E. cloacae (13047) = assay: MIC, micro-broth dilution; format: cell-based; conditions: Enterobacter cloacae, 35° C., 24 hours, read-out: ANTIMICROBIAL ACTIVITY (MIC)
# Procedure: as §1, §2
# E. coli (25922) = assay: MIC, micro-broth dilution; format: cell-based; conditions: Escherichia coli, 35° C., 24 hours, read-out: ANTIMICROBIAL ACTIVITY (MIC)
# Procedure: as §1, §2
# K. pneumoniae (13883) = assay: MIC, micro-broth dilution; format: cell-based; conditions: Klebsiella pneumoniae, 24 h, read-out: ANTIMICROBIAL ACTIVITY (MIC)
# Procedure: as §1, §2
# P. vulgaris (13315) = assay: MIC, micro-broth dilution; format: cell-based; conditions: Proteus vulgaris, 35° C., 24 hours, read-out: ANTIMICROBIAL ACTIVITY (MIC)
# Procedure: as §1, §2
# S. epidermidis (12228) = assay: MIC, micro-broth dilution; format: cell-based; conditions: Staphylococcus epidermidis, 35° C., 24 hours, read-out: ANTIMICROBIAL ACTIVITY (MIC)
# Procedure: as §1, §2
# E. faecium (T6480-9) = assay: MIC, micro-broth dilution; format: cell-based; conditions: Enterococcus faecium, 35° C., 24 hours, read-out: ANTIMICROBIAL ACTIVITY (MIC)
# Procedure: as §1, §2
# S. aureus (25923) = assay: MIC, micro-broth dilution; format: cell-based; conditions: Staphylococcus aureus, 35° C., 24 hours, read-out: ANTIMICROBIAL ACTIVITY (MIC)
# Procedure: as §1, §2
# E. faecalis (29212) = assay: MIC, micro-broth dilution; format: cell-based; conditions: Enterococcus faecalis, 35° C., 24 hours, read-out: ANTIMICROBIAL ACTIVITY (MIC)
# Procedure: as §1, §2
# S. marcescens (13880) = assay: MIC, micro-broth dilution; format: cell-based; conditions: for MIC: Serratia marcescens, 24 h, read-out: ANTIMICROBIAL ACTIVITY (MIC)
# Procedure: as §1, §2
# S. aureus (29213) = assay: MIC, micro-broth dilution; format: cell-based; conditions: Staphylococcus aureus, 24 h, read-out: ANTIMICROBIAL ACTIVITY (MIC)
# Procedure: as §1, §2
# S. aureus (H20809) = assay: MIC, micro-broth dilution; format: cell-based; conditions: Staphylococcus aureus, read-out: ANTIMICROBIAL ACTIVITY (MIC)
# Procedure: as §1, §2
# C. neoformans (M68979) = assay: MIC, micro-broth dilution; format: cell-based; conditions: Cryptococcus neoformans, 24 h, read-out: ANTIMICROBIAL ACTIVITY (MIC)
# Procedure: as §1, §2
# S. pyrogenes (19615) = assay: MIC, micro-broth dilution; format: cell-based; conditions: 24 h, read-out: ANTIMICROBIAL ACTIVITY (MIC)
# Procedure: as §1, §2
# C. albicans (90028) = assay: MIC, micro-broth dilution; format: cell-based; conditions: Candida albicans, 35° C., 24 hours, read-out: ANTIMICROBIAL ACTIVITY (MIC)
# Procedure: as §1, §2
# P. aeruginosa (10145) = assay: MIC, micro-broth dilution; format: cell-based; conditions: Pseudomonas aeruginosa, 35° C., 24 hours, read-out: ANTIMICROBIAL ACTIVITY (MIC)
# Procedure: as §1, §2
# S. agalactiae (13813) = assay: MIC, micro-broth dilution; format: cell-based; conditions: Streptococcus agalactiae, 35° C., 24 hours, read-out: ANTIMICROBIAL ACTIVITY (MIC)
# Procedure: as §1, §2
# P. aeruginosa (2853) = assay: MIC, micro-broth dilution; format: cell-based; conditions: Pseudomonas aeruginosa, 24 h, read-out: ANTIMICROBIAL ACTIVITY (MIC)
# Procedure: as §1, §2
# A. fumigatus (H29709) = assay: MIC, micro-broth dilution; format: cell-based; conditions: Aspergillus fumigatus, 35° C., 24 hours, read-out: ANTIMICROBIAL ACTIVITY (MIC)
# Procedure: as §1, §2
# C. neoformans (90012) = assay: MIC, micro-broth dilution; format: cell-based; conditions: Cryptococcus neoformans, 24 h, read-out: ANTIMICROBIAL ACTIVITY (MIC)
# Procedure: as §1, §2
SMILES,MIC (A. fumigatus (H1120)) [µg/mL],MIC (S. pneumoniae (6305)) [µg/mL],MIC (E. cloacae (13047)) [µg/mL],MIC (E. coli (25922)) [µg/mL],MIC (K. pneumoniae (13883)) [µg/mL],MIC (P. vulgaris (13315)) [µg/mL],MIC (S. epidermidis (12228)) [µg/mL],MIC (E. faecium (T6480-9)) [µg/mL],MIC (S. aureus (25923)) [µg/mL],MIC (E. faecalis (29212)) [µg/mL],MIC (S. marcescens (13880)) [µg/mL],MIC (S. aureus (29213)) [µg/mL],MIC (S. aureus (H20809); 24 h) [µg/mL],MIC (C. neoformans (M68979)) [µg/mL],MIC (S. pyrogenes (19615)) [µg/mL],MIC (C. albicans (90028)) [µg/mL],MIC (P. aeruginosa (10145)) [µg/mL],MIC (S. agalactiae (13813)) [µg/mL],MIC (P. aeruginosa (2853)) [µg/mL],MCC at 24 h [2] [µg/mL],also measured
C[C@H](C(=O)NCCCCN)[C@H]1CC[C@H]2[C@@H]3CC=C4C[C@@H](O)CC[C@]4(C)[C@H]3CC[C@]12C [SM-3],–,–,–,–,–,–,–,–,–,–,–,–,–,–,–,–,–,–,–,–,MIC [1]: > 100 µg/mL
C[C@H](C(=O)NCCCCN)[C@H]1CC[C@H]2[C@@H]3CC=C4C[C@@H](OS(=O)(=O)O)CC[C@]4(C)[C@H]3CC[C@]12C [SM-4],–,–,–,–,–,–,–,–,–,–,–,–,–,–,–,–,–,–,–,–,MIC [1]: > 100 µg/mL
"C[C@H](CCC(=O)NCCCNCCCCNCCCN)[C@H]1CC[C@H]2[C@@H]3[C@H](O)C[C@@H]4C[C@H](O)CC[C@]4(C)[C@H]3C[C@H](O)[C@]12C [SM-13, cholic acid-spermine conjugate]",25,25,> 100,25,> 100,> 100,3.13,50,6.25,50,> 100,12.5,6.25,3.13,3.13,12.5,25,12.5,25,–,"antimicrobial activity (in words) [1]: lesser activity; also recorded: more activity than SM-8, SM-14, and SM-22; minimal hemolytic concentration (MHC) at 24 h ([2]; sheep red blood cells, 24 hours at 37° C. in saline): > 100 µg/mL"
C[C@H](CCC(=O)NCCCNCCCCNCCCN)[C@H]1CC[C@H]2[C@@H]3[C@H](OS(=O)(=O)O)C[C@@H]4C[C@H](OS(=O)(=O)O)CC[C@]4(C)[C@H]3C[C@H](OS(=O)(=O)O)[C@]12C [SM-14],–,–,–,–,–,–,–,–,–,–,–,–,–,–,–,–,–,–,–,–,MIC [1]: > 100 µg/mL
C[C@H](CCC(=O)NCCNCCNCCN)[C@H]1CC[C@H]2[C@@H]3[C@H](O)C[C@@H]4C[C@H](O)CC[C@]4(C)[C@H]3C[C@H](O)[C@]12C [SM-17],25,25,50,50,50,50,25,50,25,50,> 100,25,50,12.5,12.5,25,100,12.5,50,> 100,MIC (A. fumigatus (H29709)): 25 µg/mL; MIC (C. neoformans (90012)): 12.5 µg/mL
C[C@H](CCC(=O)NCCNCCNCCN)[C@H]1CC[C@H]2[C@@H]3CC[C@@H]4CCCC[C@]4(C)[C@H]3CC[C@]12C [SM-21],6.25,1.56,> 100,50,> 100,50,1.56,1.56,3.13,3.13,> 100,3.13,3.13,1.56,3.13,6.25,25,1.56,25,3.13,MIC (A. fumigatus (H29709)): 3.13 µg/mL; MIC (C. neoformans (90012)): 1.56 µg/mL
C[C@H](CCC(=O)NCCCNCCCCNCCCN)[C@H]1CC[C@H]2[C@@H]3CC[C@@H]4C[C@H](OS(=O)(=O)O)CC[C@]4(C)[C@H]3CC[C@]12C [SM-22],> 100,25,> 100,> 100,> 100,> 100,1.56,> 100,1.56,> 100,> 100,1.56,3.13,25,1.56,> 100,> 100,> 100,> 100,> 100,MIC (A. fumigatus (H29709)): > 100 µg/mL; MIC (C. neoformans (90012)): 25 µg/mL
C[C@H](CCC(=O)NCCNCCNCCN)[C@H]1CC[C@H]2[C@@H]3CC[C@@H]4C[C@H](O)CC[C@]4(C)[C@H]3CC[C@]12C [SM-27],100,3.13,25,3.13,6.25,12.5,3.13,12.5,6.25,12.5,12.5,6.25,6.25,3.13,1.56,25,25,3.13,12.5,50,activity against S. marcescens (S. marcescens (13880); in words): found even against S. marcescens; also recorded: effective against S. marcescens; MIC (A. fumigatus (H29709)): 100 µg/mL; MIC (C. neoformans (90012)): 3.13 µg/mL
C[C@H](CCC(=O)NCCNCCNCCN)[C@H]1CC[C@H]2[C@@H]3C[C@H](O)[C@@H]4C[C@H](O)CC[C@]4(C)[C@H]3CC[C@]12C [SM-32],50,25,> 100,25,50,50,25,100,25,100,> 100,25,25,25,12.5,25,50,25,25,> 100,MIC (A. fumigatus (H29709)): 50 µg/mL; MIC (C. neoformans (90012)): 25 µg/mL
C[C@H](CCC(=O)NCCCNCCCCNCCCN)[C@H]1CC[C@H]2[C@@H]3[C@H](OS(=O)(=O)O)C[C@@H]4C[C@H](OS(=O)(=O)O)CC[C@]4(C)[C@H]3CC[C@]12C [SM-35],25,3.13,12.5,6.25,12.5,25,3.13,6.25,6.25,6.25,> 100,6.25,–,12.5,3.13,25,25,6.25,12.5,6.25,"MIC (S. aureus (H20809); S. aureus (H20809), 35° C., 24 hours): 8.25 µg/mL; MIC (A. fumigatus (H29709)): 25 µg/mL; MIC (C. neoformans (90012)): 12.5 µg/mL"

# — patent US5834453A, “Methods for the manufacture and use of antimicrobial sterol conjugates” (Lehigh University, priority 1997, dated 1998)
